# Patent US20220411449A1, “Method for Preparing Heteroleptic Triarylbismuthanes and Compounds Produced by the Same” (UNIVERSITY OF HAWAII, priority 2019, published 2022)
# Experiments:
# Staphylococcus aureus = assay: Disk diffusion zone of inhibition; conditions: for Antibacterial activity against S. aureus, in words: disk diffusion, at the concentration tested; for Zone of Inhibition, S. aureus: disks with 1-5 μg compound/disk, positive control 5 μg Novobiocin, 22 hours at 37° C., LB agar
# Escherichia coli = assay: Disk diffusion zone of inhibition; conditions: for Antibacterial activity against E. coli, in words: disk diffusion, at the concentration tested; for Zone of Inhibition, E. coli: disks with 1-5 μg compound/disk, positive control 30 μg Tetracycline, 22 hours at 37° C., LB agar
# E. coli = assay: Minimum Inhibitory Concentration (MIC) determination, 96-well plates, OD600; conditions: for MIC, E. coli: 24 hours at 37° C., compounds tested at 0-40 μg/mL in duplicate, Kanamycin 0-4 μg/mL
# S. aureus = assay: as above; conditions: for MIC, S. aureus: 24 hours at 37° C., compounds tested at 0-5 μg/mL in duplicate, Kanamycin 0-4 μg/mL
# [1] = system: Vesicular Stomatitis Virus (Indiana strain); type: cell-based
Structure (SMILES),"Antibacterial activity against S. aureus, in words (Staphylococcus aureus)","Zone of Inhibition, S. aureus (Staphylococcus aureus)","Antibacterial activity against E. coli, in words (Escherichia coli)","Zone of Inhibition, E. coli (Escherichia coli) [cm]","MIC, E. coli (E. coli)","MIC, S. aureus (S. aureus)","zone of inhibition at 30 µg/disc (Escherichia coli; Escherichia coli, 22 h, read-out: Zone of Inhibition, E. coli) [mm]",% Plaque Reduction [1] [%],"MIC (E. coli; Escherichia coli, 24 h, read-out: MIC, E. coli) [µg/mL]","MIC (S. aureus; Staphylococcus aureus, 24 h, read-out: MIC, S. aureus) [µg/mL]","zone of inhibition at 5 µg/disc (Staphylococcus aureus; Staphylococcus aureus, 22 h, read-out: Zone of Inhibition, S. aureus) [mm]"
Cc1cc(C)[c]([Bi]([c]2ccccc2)[c]2c(C)cc(C)cc2C)c(C)c1 [Compound 8],showed antibacterial activity against S. aureus,1 cm,little activity against E. coli,0,–,–,–,–,–,–,–
COc1cc[c]([Bi]([c]2ccc(C#N)cc2)[c]2ccc(C#N)cc2)cc1 [Compound 9],showed antibacterial activity against S. aureus,1 cm,little activity against E. coli,0,–,–,–,–,–,–,–
Cc1cc[c]([Bi]([O]S(=O)(=O)c2ccc(C)cc2)[O]S(=O)(=O)c2ccc(C)cc2)cc1 [Compound 22],–,–,–,0,–,–,–,–,–,–,–
COC(=O)c1cc[c]([Bi]([c]2ccccc2)[c]2ccccc2)cc1 [Compound 4],–,0 cm,–,0,–,–,–,–,–,–,–
Cc1cc(C)[c]([Bi]([c]2ccccc2)[c]2ccccc2)c(C)c1 [Compound 5],most effective against S. aureus,1.6 cm,weaker antimicrobial activity against E. coli,0,40 µg/mL,0.625 µg/mL,–,–,–,–,–
COc1cc[c]([Bi]([c]2ccc(C)cc2)[c]2ccc(OC)cc2)cc1 [Compound 12],showed antibacterial activity against S. aureus,1 cm,little activity against E. coli,0,–,–,–,–,–,–,–
COc1cc[c]([Bi]([c]2c(C)cc(C)cc2C)[c]2c(C)cc(C)cc2C)cc1 [Compound 2],showed antibacterial activity against S. aureus,1 cm,little activity against E. coli,0,–,–,–,–,–,–,–
"CN(C)[C@@H]1C(O)=C(C(N)=O)C(=O)[C@@]2(O)C(O)=C3C(=O)c4c(O)cccc4[C@@](C)(O)[C@H]3C[C@@H]12 [Tetracycline, reference compound]",–,–,–,–,–,–,18 to 25,–,–,–,–
Cc1cc[c]([Bi]([c]2ccc(C#N)cc2)[c]2ccc(C#N)cc2)cc1 [Compound 10],showed antibacterial activity against S. aureus,0.9 cm,little activity against E. coli,0,–,–,–,–,–,–,–
COC(OC)c1cc[c]([Bi]([c]2ccccc2)[c]2ccccc2)cc1 [Compound 1],–,0 cm,–,0,–,–,–,–,–,–,–
N#Cc1cc[c]([Bi]([c]2ccccc2)[c]2ccccc2)cc1 [Compound 6],–,0 cm,–,0,–,–,–,–,–,–,–
Cc1cc[c]([Bi]([O]S(=O)(=O)c2ccc(C)cc2)[O]S(=O)(=O)c2ccc(C)cc2)cc1 [Compound 21],most effective against S. aureus,1.5 cm,weaker antimicrobial activity against E. coli,1,40 µg/mL,1.25 μg/mL L,–,38.7,–,–,–
[I][Bi]([c]1ccccc1)[c]1ccccc1 [Compound 18],most effective against S. aureus,2.2 cm,weaker antimicrobial activity against E. coli,1.3,10 µg/mL,0.625 µg/mL,–,99.95,–,–,–
Cc1cc(C)[c]([Bi]([c]2ccc(C#N)cc2)[c]2c(C)cc(C)cc2C)c(C)c1 [Compound 13],showed antibacterial activity against S. aureus,0.9 cm,little activity against E. coli,0,–,–,–,–,–,–,–
Cc1cc[c]([Bi]([c]2c(C)cc(C)cc2C)[c]2c(C)cc(C)cc2C)cc1 [Compound 11],showed antibacterial activity against S. aureus,0.8 cm,little activity against E. coli,0,–,–,–,–,–,–,–
Cc1cc(C)[c]([Bi]([I])[c]2c(C)cc(C)cc2C)c(C)c1 [Compound 23],most effective against S. aureus,0.9-1.9 cm,weaker antimicrobial activity against E. coli,0.6,–,–,–,–,–,–,–
"NC[C@H]1O[C@H](O[C@H]2[C@H](O)[C@@H](O[C@H]3O[C@H](CO)[C@@H](O)[C@H](N)[C@H]3O)[C@H](N)C[C@@H]2N)[C@H](O)[C@@H](O)[C@@H]1O [Kanamycin, reference compound]",–,–,–,–,–,–,–,–,0.0625,0.0625,–
Cc1cc[c]([Bi]([O]S(=O)(=O)c2ccc(C)cc2)[c]2ccc(C)cc2)cc1 [Compound 19],most effective against S. aureus,1.8 cm,weaker antimicrobial activity against E. coli,0.8,No inhibition,2.5 µg/mL,–,76.6,–,–,–
"CO[C@@H]1[C@@H](OC(N)=O)[C@@H](O)[C@H](Oc2ccc3c(O)c(NC(=O)c4ccc(O)c(CC=C(C)C)c4)c(=O)oc3c2C)OC1(C)C [Novobiocin, reference compound]",–,–,–,–,–,–,–,–,–,–,20 to 25
Cc1ccc(S(=O)(=O)[O][Bi]([O]S(=O)(=O)c2ccc(C)cc2)[c]2ccccc2)cc1 [Compound 16],–,1.8 cm,–,1,20 µg/mL,0.625 µg/mL,–,81.8,–,–,–
Cc1ccc(S(=O)(=O)[O][Bi]([c]2ccccc2)[c]2ccccc2)cc1 [Compound 14],most effective against S. aureus,2.1 cm,weaker antimicrobial activity against E. coli,1.3,10 µg/mL,0.625 µg/mL,–,29.7,–,–,–
COc1cc[c]([Bi]([c]2ccccc2)[c]2ccc(OC)cc2)cc1 [Compound 7],showed antibacterial activity against S. aureus,1.1 cm,little activity against E. coli,0,–,–,–,–,–,–,–
COc1cc[c]([Bi]([c]2ccccc2)[c]2ccccc2)cc1 [Compound 3],showed antibacterial activity against S. aureus,1 cm,little activity against E. coli,0,–,–,–,–,–,–,–
